Source: patent publication US20240391870A1 (Arcturus Therapeutics, Inc., priority 2023, published 2024)

How the values were obtained:
hEPO = hEPO mRNA expression evaluation (hEPO-LNPs); assay type: in vivo, Balb/c mice; details: serum hEPO after 6 hr; for EPO exprssn (ng/mL) 0.03 mpk: 0.03 mpk i.v.; for EPO exprssn (ng/mL) 0.1 mpk: 0.1 mpk i.v.
Description: Protocol for hEPO mRNA Expression Evaluation
Lipid formulations comprising a hEPO mRNA below were evaluated for their ability to express hEPO in vivo according to the protocol of this example. All animal experiments were conducted using institutionally-approved protocols (IACUC). In this protocol, female Balb/c mice at least 6-8 weeks of age were purchased from Charles River Laboratory. […] After 6 hr, blood was collected with serum separation tubes, and the serum was isolated by centrifugation. Serum hEPO levels were then measured using an ELISA assay (Human Erythropoietin Quantikine IVD ELISA Kit, R&D Systems, Minneapolis, MD).

[1] = In vivo biodegradability assay (lipid in liver); details: mouse liver, 48 h
[2] = Measured pKa in the indicated formulation; details: for pKa: EPO / pKa: FVII: Table 2; for pKa: EPO: measured in EPO formulation; for pKa: FVII: measured in FVII formulation
Description: Measured pKa values were determined based on the pH measured in the indicated formulation (i.e., EPO or FVII formulation).

factor VII = assay: Factor VII knock down evaluation (LNP with FVII siRNA); assay type: in vivo, Balb/C mice; details: plasma FVII after 48 h vs saline control; for FVII KD % 0.01 mpk: 0.01 mpk i.v.; for FVII KD % 0.03 mpk: 0.03 mpk i.v.
Description: Lipid formulations comprising a FVII siRNA further described below were evaluated for their knockdown activity using the protocol of this example. In the FVII evaluation, seven to eight week-old, female Balb/C mice were purchased from Charles River Laboratories (Hollister, CA). The mice were held in a pathogen-free environment and all procedures involving the mice were performed in accordance with guidelines established by the Institutional Animal Care and Use Committee (IACUC). Lipid nanoparticles containing factor VII siRNA were administered intravenously at a dosing volume of 10 mL/kg and two dose levels (0.03 and 0.01 mg/kg). After 48 h, the mice were anesthetized with isoflurane and blood was collected retro-orbitally into Microtainer® tubes coated with 0.109 M sodium citrate buffer (BD Biosciences, San Diego, CA) and processed to plasma. Plasma specimens were tested for factor VII levels immediately or stored at −80° C. for later analysis. Measurement of FVII protein in plasma was determined using the colorimetric Biophen VII assay kit (Aniara Diagnostica, USA). Absorbance was measured at 405 nm and a calibration curve was generated using the serially diluted control plasma to determine levels of factor VII in plasma from treated animals, relative to the saline-treated control animals.

Mouse plasma stability = assay type: in vitro ADME, CD-1 mouse; details: 1 uM lipid
Description: Lipid stock solution was prepared by dissolution of the lipid in isopropanol at the concentration of 5 mg/mL. A requisite volume of the lipid-isopropanol solution was then diluted to 100 μM concentration at a total volume of 1.0 mL with in 50:50 (v/v) ethanol/water. Ten microliters of this 100 μM solution was spiked into 1.0 mL of mouse plasma (BioIVT, Cat. No.: MSE00PLNHUNN, CD-1 mouse, anticoagulant: sodium heparin, not filtered) that was pre-warmed to 37° C. and was stirred at 50 rpm with a magnetic stir bar. The starting concentration of lipids in plasma was thus 1 μM. At time points 0, 15, 30, 45, 60 and 120 min, 0.1 mL of the plasma was withdrawn from the reaction mixture and the protein was precipitated by adding 0.9 mL of ice-cold 4:1 (v/v) acetonitrile/methanol with 1 μg/mL of a selected internal standard lipid added. After filtration through a 0.45 micron 96-well filtering plate, the filtrates were analyzed by LC-MS (Thermo Fisher's Vanquish UHPLC—LTQ XL linear ion trap Mass Spectrometer); Waters XBridge BEH Shield RP18 2.5 micron (2.1×100 mm) column with its matching guard column. Mobile phase A was 0.1% formic acid in water, and mobile phase B was 0.1% formic acid in 1:1 (v/v) acetonitrile/methanol. Flow rate was 0.5 ml/min. Elution gradient was: Time 0-1 min: 10% B; 1-6 min: 10%-95% B; 6-8.5 min: 95% B; 8.5-9 min: 95%-10% B; 9-10 min: 10% B. Mass spectrometry was in positive scanning mode from 600-1100 m/z. The peak of the molecular ion of the lipids was integrated in the extracted ion chromatography (XIC) using Xcalibur software (Thermo Fisher). The relative peak area compared to T=0, after normalization by the peak area of the internal standard, was used as the percentage of the lipid remaining at each time point. T1/2 values were calculated using the first-order decay model.

Compound: CN(C)CCCSC(=O)N(CCCC(=O)OC(COC(=O)CCC1CCCCC1)COC(=O)CCC1CCCCC1)CCCC(=O)OC(COC(=O)CCC1CCCCC1)COC(=O)CCC1CCCCC1 [LIPID 10, ((4,4′-((((3-(Dimethylamino)propyl)thio)carbonyl)azanediyl)bis(butanoyl))bis(oxy))bis(propane-2,1,3-triyl)tetrakis(3-cyclohexylpropanoate)]
- EPO exprssn (ng/mL) 0.03 mpk (hEPO; Table 1): 387 ng/mL
- EPO exprssn (ng/mL) 0.1 mpk (hEPO; Table 1): 1179 ng/mL
- EPO exprssn (ng/mL) 0.03 mpk (hEPO; Table 2): 387 ng/mL
- EPO exprssn (ng/mL) 0.1 mpk (hEPO; Table 2): 1179 ng/mL
- In vivo degradability (ng/tissue) at 48h 0.03 mpk ([1]; Table 1): BLOQ
- In vivo degradability (ng/tissue) at 48h 0.1 mpk ([1]; Table 1): BLOQ
- In vivo degradability (ng/tissue) at 48h 0.03 mpk ([1]; Table 2): BLOQ
- In vivo degradability (ng/tissue) at 48h 0.1 mpk ([1]; Table 2): BLOQ
- pKa ([2]; EPO formulation): 6.46
- pKa ([2]; FVII formulation): 6.67
- pKa: EPO [2]: 6.46
- pKa: FVII [2]: 6.67
- FVII KD % 0.01 mpk (factor VII; Table 1): 92%
- FVII KD % 0.03 mpk (factor VII; Table 1): 83%
- FVII KD % 0.01 mpk (factor VII; Table 2): 92%
- FVII KD % 0.03 mpk (factor VII; Table 2): 83%
- Percent remaining in mouse plasma after 2 h (Mouse plasma stability; Table 1, mouse plasma 37 C): 36%
- Percent remaining in mouse plasma after 2 h (Mouse plasma stability; Table 2, mouse plasma 37 C): 36%

Compound: CN(C)CCCSC(=O)N(CCCC(=O)OC(COC(=O)CCCC1CCCCC1)COC(=O)CCCC1CCCCC1)CCCC(=O)OC(COC(=O)CCCC1CCCCC1)COC(=O)CCCC1CCCCC1 [LIPID 11, ((4,4′-((((3-(Dimethylamino)propyl)thio)carbonyl)azanediyl)bis(butanoyl))bis(oxy))bis(propane-2,1,3-triyl)tetrakis(4-cyclohexylbutanoate)]
- EPO exprssn (ng/mL) 0.03 mpk (hEPO; Table 1): 169 ng/mL
- EPO exprssn (ng/mL) 0.1 mpk (hEPO; Table 1): 548 ng/mL
- EPO exprssn (ng/mL) 0.03 mpk (hEPO; Table 2): 169 ng/mL
- EPO exprssn (ng/mL) 0.1 mpk (hEPO; Table 2): 548 ng/mL
- In vivo degradability (ng/tissue) at 48h 0.03 mpk ([1]; Table 1): BLOQ
- In vivo degradability (ng/tissue) at 48h 0.1 mpk ([1]; Table 1): BLOQ
- In vivo degradability (ng/tissue) at 48h 0.03 mpk ([1]; Table 2): BLOQ
- In vivo degradability (ng/tissue) at 48h 0.1 mpk ([1]; Table 2): BLOQ
- pKa ([2]; EPO formulation): 6.6
- pKa ([2]; FVII formulation): 6.68
- pKa: EPO [2]: 6.6
- pKa: FVII [2]: 6.68
- FVII KD % 0.01 mpk (factor VII; Table 1): 84%
- FVII KD % 0.03 mpk (factor VII; Table 1): 22%
- FVII KD % 0.01 mpk (factor VII; Table 2): 84%
- FVII KD % 0.03 mpk (factor VII; Table 2): 22%
- Percent remaining in mouse plasma after 2 h (Mouse plasma stability; Table 1, mouse plasma 37 C): 40%
- Percent remaining in mouse plasma after 2 h (Mouse plasma stability; Table 2, mouse plasma 37 C): 40%

Compound: CN(C)CCCSC(=O)N(CCCCCC(=O)OC(COC(=O)CCC1CCCCC1)COC(=O)CCC1CCCCC1)CCCCCC(=O)OC(COC(=O)CCC1CCCCC1)COC(=O)CCC1CCCCC1 [LIPID 12, ((6,6′-((((3-(Dimethylamino)propyl)thio)carbonyl)azanediyl)bis(hexanoyl))bis(oxy))bis(propane-2,1,3-triyl)tetrakis(3-cyclohexylpropanoate)]
- EPO exprssn (ng/mL) 0.03 mpk (hEPO; Table 1): 286 ng/mL
- EPO exprssn (ng/mL) 0.1 mpk (hEPO; Table 1): 768 ng/mL
- EPO exprssn (ng/mL) 0.03 mpk (hEPO; Table 2): 286 ng/mL
- EPO exprssn (ng/mL) 0.1 mpk (hEPO; Table 2): 768 ng/mL
- In vivo degradability (ng/tissue) at 48h 0.03 mpk ([1]; Table 1): BLOQ
- In vivo degradability (ng/tissue) at 48h 0.1 mpk ([1]; Table 1): BLOQ
- In vivo degradability (ng/tissue) at 48h 0.03 mpk ([1]; Table 2): BLOQ
- In vivo degradability (ng/tissue) at 48h 0.1 mpk ([1]; Table 2): BLOQ
- pKa ([2]; EPO formulation): 6.46
- pKa ([2]; FVII formulation): 6.61
- pKa: EPO [2]: 6.46
- pKa: FVII [2]: 6.61
- FVII KD % 0.01 mpk (factor VII; Table 1): 91%
- FVII KD % 0.03 mpk (factor VII; Table 1): 69%
- FVII KD % 0.01 mpk (factor VII; Table 2): 91%
- FVII KD % 0.03 mpk (factor VII; Table 2): 69%
- Percent remaining in mouse plasma after 2 h (Mouse plasma stability; Table 1, mouse plasma 37 C): 57%
- Percent remaining in mouse plasma after 2 h (Mouse plasma stability; Table 2, mouse plasma 37 C): 57%

Compound: CCCCCCCCC(=O)OCC(COC(=O)CCCCCCCC)OC(=O)CCN(CCC(=O)OC(COC(=O)CCCCCCCC)COC(=O)CCCCCCCC)C(=O)SCCCN(C)C [LIPID 13]
- EPO exprssn (ng/mL) 0.1 mpk (hEPO; Table 2): 1488.1 ng/mL
- In vivo degradability (ng/tissue) at 48h 0.03 mpk ([1]; Table 1): <340 ng/tissue
- In vivo degradability (ng/tissue) at 48h 0.1 mpk ([1]; Table 1): <340 ng/tissue
- In vivo degradability (ng/tissue) at 48h 0.03 mpk ([1]; Table 2): <340 ng/tissue
- In vivo degradability (ng/tissue) at 48h 0.1 mpk ([1]; Table 2): <340 ng/tissue
- pKa ([2]; EPO formulation): 6.4
- pKa ([2]; FVII formulation): 6.61
- pKa: EPO [2]: 6.40
- pKa: FVII [2]: 6.61
- FVII KD % 0.01 mpk (factor VII; Table 1): 60%
- FVII KD % 0.03 mpk (factor VII; Table 1): 87%
- FVII KD % 0.01 mpk (factor VII; Table 2): 60%
- FVII KD % 0.03 mpk (factor VII; Table 2): 87%
- Percent remaining in mouse plasma after 2 h (Mouse plasma stability; Table 1, mouse plasma 37 C): 74%
- Percent remaining in mouse plasma after 2 h (Mouse plasma stability; Table 2, mouse plasma 37 C): 74%

Compound: CCCCCCCCC(=O)OCC(COC(=O)CCCCCCCC)COC(=O)CCN(CCC(=O)OCC(COC(=O)CCCCCCCC)COC(=O)CCCCCCCC)C(=O)SCCCN(C)C [LIPID 14]
- EPO exprssn (ng/mL) 0.1 mpk (hEPO; Table 2): 1152 ng/mL
- In vivo degradability (ng/tissue) at 48h 0.03 mpk ([1]; Table 1): <340 ng/tissue
- In vivo degradability (ng/tissue) at 48h 0.1 mpk ([1]; Table 1): <340 ng/tissue
- In vivo degradability (ng/tissue) at 48h 0.03 mpk ([1]; Table 2): <340 ng/tissue
- In vivo degradability (ng/tissue) at 48h 0.1 mpk ([1]; Table 2): <340 ng/tissue
- pKa ([2]; EPO formulation): 7.19
- pKa ([2]; FVII formulation): 6.86
- pKa: EPO [2]: 7.19
- pKa: FVII [2]: 6.86
- FVII KD % 0.01 mpk (factor VII; Table 1): 65%
- FVII KD % 0.03 mpk (factor VII; Table 1): 90%
- FVII KD % 0.01 mpk (factor VII; Table 2): 65%
- FVII KD % 0.03 mpk (factor VII; Table 2): 90%
- Percent remaining in mouse plasma after 2 h (Mouse plasma stability; Table 1, mouse plasma 37 C): 116%
- Percent remaining in mouse plasma after 2 h (Mouse plasma stability; Table 2, mouse plasma 37 C): 100%
